Laboratory results reported in paper PMC3758898 (Bioorganic & medicinal chemistry, 2013).

Key:
[1] = target: T1, UPPS (Undecaprenyl Pyrophosphate Synthase) (Bacteroides fragilis, UniProt Q5LI17); experiment: RP-HPLC with fluorescence detection, TLC, ESI-MS, 1H-NMR of product; format: biochemical; conditions: IPP 0.2 mM, MgCl2 0.5 mM, KCl 5 mM, 0.1% DDM, HEPES pH 7.4, 37 °C
T1 sequence (Q5LI17 1-244): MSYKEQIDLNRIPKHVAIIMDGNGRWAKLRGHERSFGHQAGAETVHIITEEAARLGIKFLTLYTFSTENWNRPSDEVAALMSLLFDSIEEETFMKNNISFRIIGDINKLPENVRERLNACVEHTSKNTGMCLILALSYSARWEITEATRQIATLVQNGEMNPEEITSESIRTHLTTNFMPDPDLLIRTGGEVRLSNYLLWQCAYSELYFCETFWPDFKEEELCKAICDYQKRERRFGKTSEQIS

[2] = target: T1, UPPS (Undecaprenyl Pyrophosphate Synthase); experiment: RP-HPLC with fluorescence detection; format: biochemical; conditions: IPP 0.2 mM, MgCl2 0.5 mM, KCl 5 mM, 0.1% DDM, HEPES pH 7.4, 37 °C, 1 h

SMILES | RP-HPLC with fluorescence detection, TLC, ESI-MS, 1H-NMR of product [1] | RP-HPLC with fluorescence detection [2]
C/C(=C\COP(=O)(O)OP(=O)(O)O)CC/C=C(\C)CNc1ccccc1C(N)=O [6b, (6E)-8-(2-amideaniline)-3,7-dimethyl-2,6-octadiene diphosphate] | these results confirmed the formation of the long chain isoprenoid with 2AB-G-PP as the UPPS substrate | 
C/C(=C/COP(=O)(O)OP(=O)(O)O)CC/C=C(\C)CNc1ccccc1C(N)=O [6a, (6Z)-8-(2-amideaniline)-3,7-dimethyl-2,6-octadiene diphosphate] |  | we observed identical activity with 2AB-N-PP
